{"source": "ChEMBL document CHEMBL4373695", "about": "“Structure-Based Design of 5-Methylpyrimidopyridone Derivatives as New Wild-Type Sparing Inhibitors of the Epidermal Growth Factor Receptor Triple Mutant (EGFRL858R/T790M/C797S)” (J Med Chem, 2019)", "key": {"[1]": {"target": "T1, Epidermal growth factor receptor (Homo sapiens, UniProt P00533)", "T1 sequence (P00533 whole entry)": "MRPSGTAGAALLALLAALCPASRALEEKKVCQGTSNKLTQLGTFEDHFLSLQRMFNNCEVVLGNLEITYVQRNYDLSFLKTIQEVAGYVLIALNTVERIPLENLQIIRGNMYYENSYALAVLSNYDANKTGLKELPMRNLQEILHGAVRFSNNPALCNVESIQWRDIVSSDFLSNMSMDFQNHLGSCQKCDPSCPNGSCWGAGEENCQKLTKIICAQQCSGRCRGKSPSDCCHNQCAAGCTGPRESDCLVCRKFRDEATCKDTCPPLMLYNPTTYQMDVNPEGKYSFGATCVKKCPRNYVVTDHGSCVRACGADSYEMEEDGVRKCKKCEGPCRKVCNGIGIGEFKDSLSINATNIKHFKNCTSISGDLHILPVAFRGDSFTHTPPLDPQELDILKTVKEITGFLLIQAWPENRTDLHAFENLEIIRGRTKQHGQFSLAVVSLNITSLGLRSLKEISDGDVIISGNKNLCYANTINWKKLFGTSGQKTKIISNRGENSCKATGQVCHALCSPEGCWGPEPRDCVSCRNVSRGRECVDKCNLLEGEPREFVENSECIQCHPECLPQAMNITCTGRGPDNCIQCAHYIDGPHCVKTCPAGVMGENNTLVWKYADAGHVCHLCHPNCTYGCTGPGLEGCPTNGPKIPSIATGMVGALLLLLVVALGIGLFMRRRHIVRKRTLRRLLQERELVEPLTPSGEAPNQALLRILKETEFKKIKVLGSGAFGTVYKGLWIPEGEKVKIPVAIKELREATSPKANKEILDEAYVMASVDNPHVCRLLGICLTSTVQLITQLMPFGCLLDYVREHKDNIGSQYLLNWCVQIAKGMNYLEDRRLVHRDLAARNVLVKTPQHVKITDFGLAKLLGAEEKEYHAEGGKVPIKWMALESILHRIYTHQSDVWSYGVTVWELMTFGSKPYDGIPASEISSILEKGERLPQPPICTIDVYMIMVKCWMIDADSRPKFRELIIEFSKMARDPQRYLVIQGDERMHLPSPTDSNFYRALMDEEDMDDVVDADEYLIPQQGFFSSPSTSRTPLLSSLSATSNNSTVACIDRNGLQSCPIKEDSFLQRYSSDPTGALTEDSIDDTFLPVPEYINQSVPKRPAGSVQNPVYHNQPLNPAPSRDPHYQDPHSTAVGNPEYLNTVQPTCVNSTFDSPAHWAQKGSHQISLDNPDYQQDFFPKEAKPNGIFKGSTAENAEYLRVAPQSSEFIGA", "test": "Inhibition of wild-type EGFR (unknown origin) using Poly(Glu,Tyr) 4:1 as substrate after 60 mins by ELISA"}, "[2]": {"target": "Epidermal growth factor receptor (Homo sapiens, UniProt P00533, C797S/L858R/T790M)", "sequence (P00533 25-1210 T790M/C797S/L858R limits assumed)": "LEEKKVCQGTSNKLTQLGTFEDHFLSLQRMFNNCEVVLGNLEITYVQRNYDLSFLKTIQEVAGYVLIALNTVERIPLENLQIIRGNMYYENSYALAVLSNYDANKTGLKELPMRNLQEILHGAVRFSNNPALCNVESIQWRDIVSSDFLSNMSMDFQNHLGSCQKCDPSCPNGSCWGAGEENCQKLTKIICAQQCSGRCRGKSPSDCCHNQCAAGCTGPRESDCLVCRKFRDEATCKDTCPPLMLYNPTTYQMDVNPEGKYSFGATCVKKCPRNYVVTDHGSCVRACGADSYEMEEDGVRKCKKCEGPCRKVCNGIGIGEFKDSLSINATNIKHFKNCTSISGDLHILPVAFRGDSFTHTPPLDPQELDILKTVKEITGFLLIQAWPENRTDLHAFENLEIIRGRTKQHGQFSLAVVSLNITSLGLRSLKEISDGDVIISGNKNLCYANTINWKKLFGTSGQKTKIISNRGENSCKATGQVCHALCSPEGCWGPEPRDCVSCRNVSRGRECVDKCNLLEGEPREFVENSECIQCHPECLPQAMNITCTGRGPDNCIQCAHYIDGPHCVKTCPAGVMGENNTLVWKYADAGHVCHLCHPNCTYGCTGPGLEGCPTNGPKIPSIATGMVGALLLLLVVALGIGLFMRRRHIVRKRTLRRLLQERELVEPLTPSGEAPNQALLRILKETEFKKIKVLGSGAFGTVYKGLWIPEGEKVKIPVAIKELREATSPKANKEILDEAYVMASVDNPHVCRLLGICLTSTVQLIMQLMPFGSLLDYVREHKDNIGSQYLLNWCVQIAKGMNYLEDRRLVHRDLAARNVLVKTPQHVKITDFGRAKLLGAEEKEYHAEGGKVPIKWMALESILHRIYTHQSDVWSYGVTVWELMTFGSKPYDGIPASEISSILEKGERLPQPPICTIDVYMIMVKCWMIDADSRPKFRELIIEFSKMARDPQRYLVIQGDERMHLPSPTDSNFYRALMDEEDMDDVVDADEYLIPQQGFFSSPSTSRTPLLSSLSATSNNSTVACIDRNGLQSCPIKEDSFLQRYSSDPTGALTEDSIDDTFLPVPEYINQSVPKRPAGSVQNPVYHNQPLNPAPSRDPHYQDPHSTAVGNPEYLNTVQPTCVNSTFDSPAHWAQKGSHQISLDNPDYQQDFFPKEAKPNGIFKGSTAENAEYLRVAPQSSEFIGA", "test": "(§1) Inhibition of human C-terminal His-tagged and N-terminal GST-tagged EGFR L858R/T790M/C797S triple mutant ( 668 to 1210 amino acids) expressed in baculovirus infected Sf9 insect cells using Poly(Glu,Tyr) 4:1 as substrate after 60 mins by ELISA"}, "[3]": {"target": "Epidermal growth factor receptor (Homo sapiens, UniProt P00533, T790M/C797S/L858R)", "sequence (P00533 25-1210 T790M/C797S/L858R limits assumed)": "as above", "test": "as §1", "conditions": "sf9"}, "[4]": {"target": "T1, Epidermal growth factor receptor", "test": "Inhibition of wild-type EGFR (unknown origin) transfected in human A431 cells assessed as reduction in EGF-induced EGFR phosphorylation at 0.1 to 3 uM by Western blot analysis", "format": "cell-based"}, "[5]": {"test": "Permeability of the compound in human Caco2 cells at 10 uM after 120 mins by LC-MS/MS analysis", "format": "ADME, cell-based", "conditions": "caco-2, 2 h"}, "[6]": {"test_system": "Epidermal growth factor receptor (Homo sapiens), P00533 [L858R,T790M,C797S]", "sequence (P00533 whole entry T790M/C797S/L858R)": "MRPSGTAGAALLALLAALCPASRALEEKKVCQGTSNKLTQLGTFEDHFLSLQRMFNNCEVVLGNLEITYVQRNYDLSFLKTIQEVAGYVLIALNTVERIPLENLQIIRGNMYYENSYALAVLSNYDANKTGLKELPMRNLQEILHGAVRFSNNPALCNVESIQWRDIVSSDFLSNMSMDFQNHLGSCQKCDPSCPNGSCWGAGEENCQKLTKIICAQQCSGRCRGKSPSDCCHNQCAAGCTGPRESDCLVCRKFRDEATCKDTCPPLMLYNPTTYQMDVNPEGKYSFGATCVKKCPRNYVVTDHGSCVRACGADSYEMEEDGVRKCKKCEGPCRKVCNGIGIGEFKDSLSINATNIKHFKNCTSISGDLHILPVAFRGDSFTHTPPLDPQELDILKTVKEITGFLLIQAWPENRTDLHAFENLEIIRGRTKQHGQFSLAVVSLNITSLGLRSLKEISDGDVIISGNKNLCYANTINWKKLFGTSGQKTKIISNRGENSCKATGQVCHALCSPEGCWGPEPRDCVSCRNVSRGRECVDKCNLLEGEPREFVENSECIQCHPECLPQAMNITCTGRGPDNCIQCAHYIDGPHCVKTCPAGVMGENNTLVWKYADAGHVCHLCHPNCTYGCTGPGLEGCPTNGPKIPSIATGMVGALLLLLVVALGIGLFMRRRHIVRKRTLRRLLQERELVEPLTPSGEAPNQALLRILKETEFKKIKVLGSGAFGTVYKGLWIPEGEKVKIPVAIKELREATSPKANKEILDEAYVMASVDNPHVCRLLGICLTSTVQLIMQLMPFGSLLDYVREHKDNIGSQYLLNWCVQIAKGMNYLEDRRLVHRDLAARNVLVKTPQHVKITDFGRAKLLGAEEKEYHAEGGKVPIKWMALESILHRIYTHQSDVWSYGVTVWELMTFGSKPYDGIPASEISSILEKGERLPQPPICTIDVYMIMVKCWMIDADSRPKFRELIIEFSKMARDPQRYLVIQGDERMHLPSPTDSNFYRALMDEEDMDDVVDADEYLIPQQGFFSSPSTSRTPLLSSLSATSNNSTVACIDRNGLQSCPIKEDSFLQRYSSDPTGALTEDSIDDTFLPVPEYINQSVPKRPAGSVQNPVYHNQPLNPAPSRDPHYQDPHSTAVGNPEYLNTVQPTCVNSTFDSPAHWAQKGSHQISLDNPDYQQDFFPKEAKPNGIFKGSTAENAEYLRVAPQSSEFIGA", "test": "Inhibition of EGFR L858R/T790M/C797S triple mutant (unknown origin) transfected in mouse BAF3 cells assessed as reduction in EGF-induced EGFR phosphorylation at 0.1 to 3 uM by Western blot analysis", "format": "cell-based"}, "[7]": {"test": "Metabolic stability in rat liver microsomes preincubated for 5 mins followed by NADPH addition and measured after 5 to 45 mins by LC/MS analysis", "format": "ADME, Microsome"}, "[8]": {"test": "Aqueous solubility of the compound at 2 mg at pH 7.4 after 24 hrs by LC-MS/MS analysis", "format": "physicochemical", "conditions": "pH 7.4, 24 h"}, "BaF3": {"test_system": "BaF3", "test": "Antiproliferative activity against mouse BAF3 cells harboring EGFR L858R/T790M/C797S triple mutant after 72 hrs by resazurin dye-based fluorescence assay", "format": "functional, cell-based", "conditions": "BaF3, 72 h"}}, "note": "Calls of active or inactive are those of the source. No cut-off for these calls is given here."}
{"smiles": "N#Cc1ccc(O)c(-c2nc(NCc3cnccn3)c3ccccc3n2)c1", "values": [{"measurement": "IC50", "setting": "[1]", "value": "> 1000", "unit": "nM"}, {"measurement": "IC50", "setting": "[2]", "value": 38.7, "unit": "nM"}]}
{"smiles": "CCC(=O)N1CCC[C@@H](n2c(=O)c(-c3ccccc3)c(C)c3cnc(Nc4ccc(N5CCN(C)CC5)c(C)c4)nc32)C1", "values": [{"measurement": "IC50", "setting": "[1]", "value": "> 1000", "unit": "nM"}, {"measurement": "IC50", "setting": "[2]", "value": "> 1000", "unit": "nM"}]}
{"smiles": "CCC(=O)N1CCC[C@@H](n2c(=O)c(-c3ccc(Cl)cc3)c(C)c3cnc(Nc4ccc(N5CCN(C)CC5)c(C)c4)nc32)C1", "values": [{"measurement": "IC50", "setting": "[1]", "value": "> 1000", "unit": "nM"}, {"measurement": "IC50", "setting": "[2]", "value": "> 1000", "unit": "nM"}]}
{"smiles": "CCC(=O)N1CCC[C@@H](n2c(=O)c(-c3cccc(Cl)c3)c(C)c3cnc(Nc4ccc(N5CCN(C)CC5)c(C)c4)nc32)C1", "values": [{"measurement": "IC50", "setting": "[1]", "value": "> 1000", "unit": "nM"}, {"measurement": "IC50", "setting": "[2]", "value": "> 1000", "unit": "nM"}]}
{"smiles": "CCC(=O)N[C@H]1CC[C@@H](n2c(=O)c(-c3ccccc3Cl)c(C)c3cnc(Nc4ccc(N5CCN(C)CC5)c(C)c4)nc32)CC1", "note": "(stereo in doubt; 8c-A)", "values": [{"measurement": "IC50", "setting": "[1]", "value": "> 1000", "unit": "nM"}, {"measurement": "IC50", "setting": "[2]", "value": 519, "unit": "nM"}]}
{"smiles": "CCC(=O)N[C@H]1CC[C@@H](n2c(=O)c(-c3ccccc3Cl)c(C)c3cnc(Nc4ccc(N5CCN(C)CC5)c(C)c4)nc32)CC1", "note": "(stereo in doubt; 8c-B)", "values": [{"measurement": "IC50", "setting": "[1]", "value": 169, "unit": "nM"}, {"measurement": "IC50", "setting": "[2]", "value": 27.7, "unit": "nM"}]}
{"smiles": "CCC(=O)N1CCC[C@H](n2c(=O)c(-c3ccccc3Cl)c(C)c3cnc(Nc4ccc(N5CCN(C)CC5)c(C)c4)nc32)C1", "note": "(stereo in doubt; 8e-A)", "values": [{"measurement": "IC50", "setting": "[1]", "value": "> 1000", "unit": "nM"}, {"measurement": "IC50", "setting": "[2]", "value": "> 1000", "unit": "nM"}]}
{"smiles": "CCC(=O)N1CCC[C@H](n2c(=O)c(-c3ccccc3Cl)c(C)c3cnc(Nc4ccc(N5CCN(C)CC5)c(C)c4)nc32)C1", "note": "(stereo in doubt; 8e-B)", "values": [{"measurement": "IC50", "setting": "[1]", "value": "> 1000", "unit": "nM"}, {"measurement": "IC50", "setting": "[3]", "value": "> 1000", "unit": "nM"}]}
{"smiles": "CCC(=O)N1CCC[C@@H](n2c(=O)c(-c3ccccc3Cl)c(C)c3cnc(Nc4ccc(N5CCN(C)CC5)c(C)c4)nc32)C1", "note": "(stereo in doubt; 8f-A)", "values": [{"measurement": "IC50", "setting": "[1]", "value": "> 1000", "unit": "nM"}, {"measurement": "IC50", "setting": "[2]", "value": "> 1000", "unit": "nM"}]}
{"smiles": "CCC(=O)N1CCC[C@@H](n2c(=O)c(-c3ccccc3Cl)c(C)c3cnc(Nc4ccc(N5CCN(C)CC5)c(C)c4)nc32)C1", "note": "(stereo in doubt; 8f-B)", "values": [{"measurement": "IC50", "setting": "[1]", "value": "> 1000", "unit": "nM"}, {"measurement": "IC50", "setting": "[2]", "value": 65.1, "unit": "nM"}]}
{"smiles": "CCC(=O)N1CC[C@@H](n2c(=O)c(-c3ccccc3Cl)c(C)c3cnc(Nc4ccc(N5CCN(C)CC5)c(C)c4)nc32)C1", "note": "(stereo in doubt; 8g-A)", "values": [{"measurement": "IC50", "setting": "[1]", "value": "> 1000", "unit": "nM"}, {"measurement": "IC50", "setting": "[2]", "value": "> 1000", "unit": "nM"}]}
{"smiles": "CCC(=O)N1CC[C@@H](n2c(=O)c(-c3ccccc3Cl)c(C)c3cnc(Nc4ccc(N5CCN(C)CC5)c(C)c4)nc32)C1", "note": "(stereo in doubt; 8g-B)", "values": [{"measurement": "IC50", "setting": "[1]", "value": "> 1000", "unit": "nM"}, {"measurement": "IC50", "setting": "[2]", "value": 81.7, "unit": "nM"}]}
{"smiles": "CCC(=O)N1CCC[C@@H](n2c(=O)c(-c3ccccc3Br)c(C)c3cnc(Nc4ccc(N5CCN(C)CC5)c(C)c4)nc32)C1", "note": "(stereo in doubt; 8l-A)", "values": [{"measurement": "IC50", "setting": "[1]", "value": "> 1000", "unit": "nM"}, {"measurement": "IC50", "setting": "[2]", "value": 498, "unit": "nM"}]}
{"smiles": "CCC(=O)N1CCC[C@@H](n2c(=O)c(-c3ccccc3Br)c(C)c3cnc(Nc4ccc(N5CCN(C)CC5)c(C)c4)nc32)C1", "note": "(stereo in doubt; 8l-B)", "values": [{"measurement": "IC50", "setting": "[1]", "value": "> 1000", "unit": "nM"}, {"measurement": "IC50", "setting": "[2]", "value": 56.1, "unit": "nM"}]}
{"smiles": "CCC(=O)N1CCC[C@@H](n2c(=O)c(-c3ccccc3C)c(C)c3cnc(Nc4ccc(N5CCN(C)CC5)c(C)c4)nc32)C1", "note": "(stereo in doubt; 8m-A)", "values": [{"measurement": "IC50", "setting": "[1]", "value": "> 1000", "unit": "nM"}, {"measurement": "IC50", "setting": "[2]", "value": 588, "unit": "nM"}]}
{"smiles": "CCC(=O)N1CCC[C@@H](n2c(=O)c(-c3ccccc3C)c(C)c3cnc(Nc4ccc(N5CCN(C)CC5)c(C)c4)nc32)C1", "note": "(stereo in doubt; 8m-B)", "values": [{"measurement": "IC50", "setting": "[1]", "value": "> 1000", "unit": "nM"}, {"measurement": "IC50", "setting": "[2]", "value": 228, "unit": "nM"}]}
{"smiles": "CCC(=O)N1CCC[C@@H](n2c(=O)c(-c3cc(F)ccc3Cl)c(C)c3cnc(Nc4ccc(N5CCN(C)CC5)c(C)c4)nc32)C1", "note": "(stereo in doubt; 8p-A)", "values": [{"measurement": "IC50", "setting": "[1]", "value": "> 1000", "unit": "nM"}, {"measurement": "IC50", "setting": "[2]", "value": 207, "unit": "nM"}]}
{"smiles": "CCC(=O)N1CCC[C@@H](n2c(=O)c(-c3cc(F)ccc3Cl)c(C)c3cnc(Nc4ccc(N5CCN(C)CC5)c(C)c4)nc32)C1", "note": "(stereo in doubt; 8p-B)", "values": [{"measurement": "IC50", "setting": "[1]", "value": "> 1000", "unit": "nM"}, {"measurement": "IC50", "setting": "[2]", "value": 37.1, "unit": "nM"}]}
{"smiles": "CCC(=O)N1CCC[C@@H](n2c(=O)c(-c3ccc(F)cc3Cl)c(C)c3cnc(Nc4ccc(N5CCN(C)CC5)c(C)c4)nc32)C1", "note": "(stereo in doubt; 8q-A)", "values": [{"measurement": "IC50", "setting": "[1]", "value": "> 1000", "unit": "nM"}, {"measurement": "IC50", "setting": "[2]", "value": 224, "unit": "nM"}]}
{"smiles": "CCC(=O)N1CCC[C@@H](n2c(=O)c(-c3ccc(F)cc3Cl)c(C)c3cnc(Nc4ccc(N5CCN(C)CC5)c(C)c4)nc32)C1", "note": "(stereo in doubt; 8q-B)", "values": [{"measurement": "IC50", "setting": "[1]", "value": "> 1000", "unit": "nM"}, {"measurement": "IC50", "setting": "[2]", "value": 88.6, "unit": "nM"}]}
{"smiles": "CCC(=O)N1CCC[C@@H](n2c(=O)c(-c3cccc(F)c3Cl)c(C)c3cnc(Nc4ccc(N5CCN(C)CC5)c(C)c4)nc32)C1", "note": "(stereo in doubt; 8r-B)", "values": [{"measurement": "inhibition (INH)", "setting": "[4]", "value": "Not Active"}, {"measurement": "permeability", "setting": "[5]", "value": "Permeable"}, {"measurement": "inhibition", "setting": "[6]", "value": "Active"}, {"measurement": "Stability", "setting": "[7]", "value": "Unstable"}, {"measurement": "solubility", "setting": "[8]", "value": "Soluble"}, {"measurement": "IC50", "setting": "BaF3", "value": 662, "unit": "nM"}]}
